Measurements reported in patent US20240246964A1 (Arbutus Biopharma Corporation, priority 2021, published 2024).

Molecular target: human PD-L1 (Homo sapiens (Human), UniProt Q9NZQ7)
Assay: T cell activation luciferase reporter cell culture system (T Cell Activation Assay)
Format: cell-based
Details: luciferase reporter assay; PD-L1 aAPC/CHO-K1 cells with PD-1 effector Jurkat T cells

Chain of human PD-L1 (Q9NZQ7 19-290): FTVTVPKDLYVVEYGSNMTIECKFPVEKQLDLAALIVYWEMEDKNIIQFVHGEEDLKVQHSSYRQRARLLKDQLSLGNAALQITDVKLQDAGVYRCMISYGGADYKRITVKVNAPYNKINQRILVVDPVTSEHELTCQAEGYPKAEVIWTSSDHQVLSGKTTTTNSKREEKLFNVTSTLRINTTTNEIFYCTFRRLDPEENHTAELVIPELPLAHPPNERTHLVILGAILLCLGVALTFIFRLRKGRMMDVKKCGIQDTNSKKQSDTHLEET

SMILES	EC50 [nM]
CNCc1ccc(C(=O)Nc2cccc(-c3ccnc(-c4ccc(CNC)c(OC)c4)c3Cl)c2C)nc1 [Example 696, N-(3-(3-Chloro-2-(3-methoxy-4-((methylamino)methyl)phenyl)pyridin-4-yl)-2-methylphenyl)-5-((methylamino)methyl)picolinamide]	244
COc1nc(-c2cccc(-c3ccnc(-c4cc(OC)c5nc(CNCC6(O)CC6)nn5c4)c3Cl)c2Cl)ccc1CNC1CCN(C(C)=O)CC1 [Example 699, 1-(4-(((6-(2-chloro-3-(3-chloro-2-(2-((((1-hydroxycyclopropyl)methyl)amino)methyl)-8-methoxy-[1,2,4]triazolo[1,5-a]pyridin-6-yl)pyridin-4-yl)phenyl)-2-methoxypyridin-3-yl)methyl)amino)piperidin-1-yl)ethan-1-one]	51.5
COc1cc(-c2nccc(-c3cccc(NC(=O)c4ccc(CNCCO)cn4)c3C)c2Cl)ccc1CNC1CCN(C(C)=O)CC1 [Example 700, N-(3-(2-(4-(((1-Acetylpiperidin-4-yl)amino)methyl)-3-methoxyphenyl)-3-chloropyridin-4-yl)-2-methylphenyl)-5-(((2-hydroxyethyl)amino)methyl)picolinamide]	124
COc1cc(-c2nccc(-c3cccc(NC(=O)c4ccc(CN5CC6(COC6)C5)cn4)c3Cl)c2Cl)ccc1CN1CC2(COC2)C1 [Example 701, 5-((2-Oxa-6-azaspiro[3.3]heptan-6-yl)methyl)-N-(3-(2-(4-((2-oxa-6-azaspiro[3.3]heptan-6-yl)methyl)-3-methoxyphenyl)-3-chloropyridin-4-yl)-2-chlorophenyl)picolinamide]	410
COc1cc(-c2nccc(-c3cccc(NC(=O)c4ccc(CNCCCF)cn4)c3Cl)c2Cl)ccc1CNCCCF [Example 702, N-(2-Chloro-3-(3-chloro-2-(4-(((3-fluoropropyl)amino)methyl)-3-methoxyphenyl)pyridin-4-yl)phenyl)-5-(((3-fluoropropyl)amino)methyl)picolinamide]	266
COc1nc(-c2ccnc(-c3cccc4c3CCC[C@@H]4Nc3nc(OC)c(CNC4(C(=O)O)CC4)cc3C(F)(F)F)c2Cl)ccc1CNC[C@@H]1CCC(=O)N1 [Example 704]	≥ 10000
COc1cc(-c2nccc(-c3cccc4c3CCC[C@@H]4Nc3nc(OC)c(CNC4(C(=O)O)CC4)cc3C(F)(F)F)c2Cl)ccc1CNC[C@@H]1CCC(=O)N1 [Example 705, 1-(((6-(((S)-5-(3-Chloro-2-(3-methoxy-4-(((((S)-5-oxopyrrolidin-2-yl)methyl)amino)methyl)phenyl)pyridin-4-yl)-1,2,3,4-tetrahydronaphthalen-1-yl)amino)-2-methoxy-5-(trifluoromethyl)pyridin-3-yl)methyl)amino)cyclopropane-1-carboxylic acid]	≥ 10000
COc1nc(-c2ccnc(-c3cccc4c3CCC[C@@H]4Nc3nc(OC)c(CNC[C@@H]4CCC(=O)N4)cc3C(F)(F)F)c2Cl)ccc1CNC[C@@H]1CCC(=O)N1 [Example 709, (S)-5-((((3′-Chloro-6-methoxy-2′-((S)-5-((6-methoxy-5-(((((S)-5-oxopyrrolidin-2-yl)methyl)amino)methyl)-3-(trifluoromethyl)pyridin-2-yl)amino)-5,6,7,8-tetrahydronaphthalen-1-yl)-[2,4′-bipyridin]-5-yl)methyl)amino)methyl)pyrrolidin-2-one]	≥ 10000
COc1cc(-c2nccc(-c3cccc4c3CCC[C@@H]4Nc3nc(OC)c(CNC[C@@H]4CCC(=O)N4)cc3C(F)(F)F)c2Cl)ccc1CNC[C@@H]1CCC(=O)N1 [Example 710, (S)-5-((((6-(((S)-5-(3-Chloro-2-(3-methoxy-4-(((((S)-5-oxopyrrolidin-2-yl)methyl)amino)methyl)phenyl)pyridin-4-yl)-1,2,3,4-tetrahydronaphthalen-1-yl)amino)-2-methoxy-5-(trifluoromethyl)pyridin-3-yl)methyl)amino)methyl)pyrrolidin-2-one]	≥ 10000
COc1cc(-c2ncnc(-c3cccc(-c4ccc(CNCCO)c(OC)n4)c3Cl)c2Cl)ccc1CN1CC2(CNC(=O)C2)C1 [Example 711, 2-(4-(5-Chloro-6-(2-chloro-3-(5-(((2-hydroxyethyl)amino)methyl)-6-methoxypyridin-2-yl)phenyl)pyrimidin-4-yl)-2-methoxybenzyl)-2,6-diazaspiro[3.4]octan-7-one]	195
COc1nc(-c2cccc(-c3ccnc(-c4cc(OC)c5nc(CNCCCF)nn5c4)c3Cl)c2Cl)ccc1CNC1CCN(C(C)=O)CC1 [Example 713, 1-(4-(((6-(2-Chloro-3-(3-chloro-2-(2-(((3-fluoropropyl)amino)methyl)-8-methoxy-[1,2,4]triazolo[1,5-a]pyridin-6-yl)pyridin-4-yl)phenyl)-2-methoxypyridin-3-yl)methyl)amino)piperidin-1-yl)ethan-1-one]	130
COc1nc(-c2cccc(-c3ccnc(-c4cc(OC)c5nc(CN(C)CCO)nn5c4)c3Cl)c2Cl)ccc1CNC1CCN(C(C)=O)CC1 [Example 715, 1-(4-(((6-(2-Chloro-3-(3-chloro-2-(2-(((2-hydroxyethyl)(methyl)amino)methyl)-8-methoxy-[1,2,4]triazolo[1,5-a]pyridin-6-yl)pyridin-4-yl)phenyl)-2-methoxypyridin-3-yl)methyl)amino)piperidin-1-yl)ethan-1-one]	581
COc1cc(-c2ncnc(-c3cccc(-c4ccc(CNC5CCN(C(C)=O)CC5)c(OC)n4)c3Cl)c2OC)ccc1CNC1CCN(C(C)=O)CC1 [Example 717, 1-(4-(((6-(3-(6-(4-(((1-Acetylpiperidin-4-yl)amino)methyl)-3-methoxyphenyl)-5-methoxypyrimidin-4-yl)-2-chlorophenyl)-2-methoxypyridin-3-yl)methyl)amino)piperidin-1-yl)ethan-1-one]	≥ 10000
COc1cc(-c2ncnc(-c3cccc(-c4ccc(CN5CC6(CNC(=O)C6)C5)c(OC)n4)c3Cl)c2OC)ccc1CN1CC2(CNC(=O)C2)C1 [Example 727, 2-((6-(2-Chloro-3-(5-methoxy-6-(3-methoxy-4-((7-oxo-2,6-diazaspiro[3.4]octan-2-yl)methyl)phenyl)pyrimidin-4-yl)phenyl)-2-methoxypyridin-3-yl)methyl)-2,6-diazaspiro[3.4]octan-7-one]	≥ 10000
COc1cc(-c2ncnc(-c3cccc(-c4ccc(CNCCO)c(OC)n4)c3Cl)c2OC)ccc1CNCCO [Example 728, 2-((4-(6-(2-Chloro-3-(5-(((2-hydroxyethyl)amino)methyl)-6-methoxypyridin-2-yl)phenyl)-5-methoxypyrimidin-4-yl)-2-methoxybenzyl)amino)ethan-1-ol]	≥ 10000
CNCc1ccc(-c2ccnc(-c3cccc4c3CCC[C@@H]4Nc3nc(OC)c(CNC)cc3C(F)(F)F)c2Cl)nc1OC [Example 732, (S)—N-(5-(3′-Chloro-6-methoxy-5-((methylamino)methyl)-[2,4′-bipyridin]-2′-yl)-1,2,3,4-tetrahydronaphthalen-1-yl)-6-methoxy-5-((methylamino)methyl)-3-(trifluoromethyl)pyridin-2-amine]	≥ 10000
COc1cc(-c2nccc(-c3cccc(NC(=O)c4ccc(CNCCO)cn4)c3Cl)c2Cl)ccc1CNC1CCN(C(C)=O)CC1 [Example 733, N-(3-(2-(4-(((1-Acetylpiperidin-4-yl)amino)methyl)-3-methoxyphenyl)-3-chloropyridin-4-yl)-2-chlorophenyl)-5-(((2-hydroxyethyl)amino)methyl)picolinamide]	28.6
COc1cc(-c2ncnc(-c3cccc(-c4ccc(CNC5CCOCC5)c(OC)n4)c3Cl)c2OC)ccc1CNC1CCOCC1 [Example 734, N-((6-(2-Chloro-3-(5-methoxy-6-(3-methoxy-4-(((tetrahydro-2H-pyran-4-yl)amino)methyl)phenyl)pyrimidin-4-yl)phenyl)-2-methoxypyridin-3-yl)methyl)tetrahydro-2H-pyran-4-amine]	≥ 10000
COc1cc(-c2nccc(-c3cccc4c3CCC[C@@H]4Nc3nc(OC)c(CNC[C@H](C)O)cc3C(F)(F)F)c2Cl)ccc1CNC[C@@H]1CCC(=O)N1 [Example 736, (S)-5-(((4-(3-Chloro-4-((S)-5-((5-((((S)-2-hydroxypropyl)amino)methyl)-6-methoxy-3-(trifluoromethyl)pyridin-2-yl)amino)-5,6,7,8-tetrahydronaphthalen-1-yl)pyridin-2-yl)-2-methoxybenzyl)amino)methyl)pyrrolidin-2-one]	≥ 10000
COc1cc(-c2ncnc(-c3cccc(-c4ccc(CN[C@H]5C[C@@H](O)C5)c(OC)n4)c3Cl)c2Cl)ccc1CN1CC2(CNC(=O)C2)C1 [Example 737, 2-(4-(5-Chloro-6-(2-chloro-3-(5-((((1s,3s)-3-hydroxycyclobutyl)amino)methyl)-6-methoxypyridin-2-yl)phenyl)pyrimidin-4-yl)-2-methoxybenzyl)-2,6-diazaspiro[3.4]octan-7-one]	109
COc1nc(-c2nccc(-c3cccc(NC(=O)c4cn(C)c(=O)n(C)c4=O)c3Cl)c2Cl)ccc1CNC[C@@H]1CCC(=O)N1 [Example 738, (S)—N-(2-Chloro-3-(3-chloro-6′-methoxy-5′-((((5-oxopyrrolidin-2-yl)methyl)amino)methyl)-[2,2′-bipyridin]-4-yl)phenyl)-1,3-dimethyl-2,4-dioxo-1,2,3,4-tetrahydropyrimidine-5-carboxamide]	272
COc1nc(-c2nccc(-c3cccc(NC(=O)c4cn(C)c(=O)n(C)c4=O)c3Cl)c2Cl)ccc1CNC[C@H](C)O [Example 739, (S)—N-(2-Chloro-3-(3-chloro-5′-(((2-hydroxypropyl)amino)methyl)-6′-methoxy-[2,2′-bipyridin]-4-yl)phenyl)-1,3-dimethyl-2,4-dioxo-1,2,3,4-tetrahydropyrimidine-5-carboxamide]	1850
COc1cc(-c2ncnc(-c3cccc(-c4ccc(CN[C@H]5C[C@H](O)C5)c(OC)n4)c3Cl)c2Cl)ccc1CN1CC2(CNC(=O)C2)C1 [Example 740]	80.4
CNCc1ccc(-c2nccc(-c3cccc4c3CCC[C@@H]4Nc3nc(OC)c(CNC)cc3C(F)(F)F)c2Cl)cc1OC [Example 741, (S)—N-(5-(3-Chloro-2-(3-methoxy-4-((methylamino)methyl)phenyl)pyridin-4-yl)-1,2,3,4-tetrahydronaphthalen-1-yl)-6-methoxy-5-((methylamino)methyl)-3-(trifluoromethyl)pyridin-2-amine]	≥ 10000
